From patent US7612200B2, “Inhibitors of protein kinases” (Locus Pharmaceuticals, Inc., priority 2004, dated 2009)

Assays:
EphB4 = molecular target: T1, EphB4 (Homo sapiens, UniProt P54760); assay: Kinase activity at ATP Km,app, EphB4; type: biochemical; conditions: 40 min, compound 2 μM
T1 sequence (P54760 16-987): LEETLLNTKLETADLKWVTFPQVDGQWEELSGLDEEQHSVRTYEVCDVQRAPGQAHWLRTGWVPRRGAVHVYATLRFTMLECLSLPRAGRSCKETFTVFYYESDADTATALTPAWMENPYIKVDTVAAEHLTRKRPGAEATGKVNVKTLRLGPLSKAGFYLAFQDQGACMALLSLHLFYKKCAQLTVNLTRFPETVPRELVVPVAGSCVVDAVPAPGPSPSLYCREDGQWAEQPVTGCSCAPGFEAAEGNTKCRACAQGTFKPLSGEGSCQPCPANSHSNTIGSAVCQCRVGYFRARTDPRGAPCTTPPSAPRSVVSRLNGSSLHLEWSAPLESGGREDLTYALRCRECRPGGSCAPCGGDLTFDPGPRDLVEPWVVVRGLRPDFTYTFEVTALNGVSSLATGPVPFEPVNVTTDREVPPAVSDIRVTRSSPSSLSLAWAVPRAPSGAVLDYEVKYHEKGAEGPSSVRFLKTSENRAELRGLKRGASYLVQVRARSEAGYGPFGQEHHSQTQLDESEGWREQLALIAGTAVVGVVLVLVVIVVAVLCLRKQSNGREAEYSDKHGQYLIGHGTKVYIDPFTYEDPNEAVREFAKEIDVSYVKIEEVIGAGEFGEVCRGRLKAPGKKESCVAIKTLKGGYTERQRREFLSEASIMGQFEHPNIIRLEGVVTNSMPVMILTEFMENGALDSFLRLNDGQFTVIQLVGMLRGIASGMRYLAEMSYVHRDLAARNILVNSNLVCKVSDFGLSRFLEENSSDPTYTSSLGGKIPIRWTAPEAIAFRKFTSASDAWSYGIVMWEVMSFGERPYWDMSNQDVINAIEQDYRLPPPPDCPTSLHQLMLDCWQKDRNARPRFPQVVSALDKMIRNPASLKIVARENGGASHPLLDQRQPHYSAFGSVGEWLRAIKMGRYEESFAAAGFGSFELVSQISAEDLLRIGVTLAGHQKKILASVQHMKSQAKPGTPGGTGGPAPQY
Procedure: (§1) EphB4 Kinase Activity: In a final reaction volume of 25 μl, EphB4 (h) (5-10 mU) is incubated with 8 mM MOPS pH 7.0, 0.2 mM EDTA, 10 mM MnCl2, 0.1 mg/ml poly(Glue, Tyr) 4:1, 10 mM MgAcetate and [γ-^33P-ATP] (specific activity approx. 500 cpm/pmol, concentration as required). The reaction is initiated by the addition of the MgATP mix. After incubatin for 40 minutes at room temperature, the reaction is stopped by the addition of 5 μl of a 3% phosphoric acid solution. 10 μl of the reaction is then spotted onto a Filtermat A and washed three times for 5 minutes in 75 mM phosphoric acid and once in methanol prior to drying and scintillating counting.

IRAK4 = molecular target: T2, IRAK4 (Homo sapiens, UniProt Q9NWZ3); assay: Kinase activity at ATP Km,app, IRAK4; type: biochemical; conditions: compound 2 μM
T2 sequence (Q9NWZ3 1-460): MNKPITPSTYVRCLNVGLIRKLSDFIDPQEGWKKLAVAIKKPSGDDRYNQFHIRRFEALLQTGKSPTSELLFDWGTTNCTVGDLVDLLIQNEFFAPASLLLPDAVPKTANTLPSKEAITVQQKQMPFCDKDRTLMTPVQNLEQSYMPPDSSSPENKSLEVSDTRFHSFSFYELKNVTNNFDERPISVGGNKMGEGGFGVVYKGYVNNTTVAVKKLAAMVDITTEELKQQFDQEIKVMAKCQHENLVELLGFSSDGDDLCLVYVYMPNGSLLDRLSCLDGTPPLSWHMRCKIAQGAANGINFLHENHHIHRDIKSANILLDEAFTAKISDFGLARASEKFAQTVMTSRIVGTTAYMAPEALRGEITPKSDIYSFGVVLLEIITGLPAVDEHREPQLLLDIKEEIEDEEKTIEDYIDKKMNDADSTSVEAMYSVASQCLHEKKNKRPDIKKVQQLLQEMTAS

PKA = PKA (Bos taurus, UniProt P00517); assay: Kinase activity at ATP Km,app, PKA; type: biochemical, bovine; conditions: 40 min, compound 2 μM
Procedure: PKA Kinase Activity: In a final reaction volume of 25 μl, PKA (b) (5-10 mU) is incubated with 8 mM MOPS pH 7.0, 0.2 mM EDTA, 30 μM LRRASLG (Kemptide), 10 mM MgAcetate and [γ-^33P-ATP] (specific activity approx. 500 cpm/pmol, concentration as required). The reaction is initiated by the addition of the MgATP mix. After incubation for 40 minutes at room temperature, the reaction is stopped by the addition of 5 μl of a 3% phosphoric acid solution. 10 μl of the reaction is the spotted onto a P30 filtermat and washed three times for 5 minutes in 50 mM phosphoric acid and once in methanol prior to drying and scintillation counting.

PDGFR-beta = PDGFR-beta (Homo sapiens, UniProt P09619); assay: Kinase activity at ATP Km,app, PDGFR-beta; type: biochemical; conditions: 40 min, compound 2 μM
Chain of PDGFR-beta (P09619 33-1106): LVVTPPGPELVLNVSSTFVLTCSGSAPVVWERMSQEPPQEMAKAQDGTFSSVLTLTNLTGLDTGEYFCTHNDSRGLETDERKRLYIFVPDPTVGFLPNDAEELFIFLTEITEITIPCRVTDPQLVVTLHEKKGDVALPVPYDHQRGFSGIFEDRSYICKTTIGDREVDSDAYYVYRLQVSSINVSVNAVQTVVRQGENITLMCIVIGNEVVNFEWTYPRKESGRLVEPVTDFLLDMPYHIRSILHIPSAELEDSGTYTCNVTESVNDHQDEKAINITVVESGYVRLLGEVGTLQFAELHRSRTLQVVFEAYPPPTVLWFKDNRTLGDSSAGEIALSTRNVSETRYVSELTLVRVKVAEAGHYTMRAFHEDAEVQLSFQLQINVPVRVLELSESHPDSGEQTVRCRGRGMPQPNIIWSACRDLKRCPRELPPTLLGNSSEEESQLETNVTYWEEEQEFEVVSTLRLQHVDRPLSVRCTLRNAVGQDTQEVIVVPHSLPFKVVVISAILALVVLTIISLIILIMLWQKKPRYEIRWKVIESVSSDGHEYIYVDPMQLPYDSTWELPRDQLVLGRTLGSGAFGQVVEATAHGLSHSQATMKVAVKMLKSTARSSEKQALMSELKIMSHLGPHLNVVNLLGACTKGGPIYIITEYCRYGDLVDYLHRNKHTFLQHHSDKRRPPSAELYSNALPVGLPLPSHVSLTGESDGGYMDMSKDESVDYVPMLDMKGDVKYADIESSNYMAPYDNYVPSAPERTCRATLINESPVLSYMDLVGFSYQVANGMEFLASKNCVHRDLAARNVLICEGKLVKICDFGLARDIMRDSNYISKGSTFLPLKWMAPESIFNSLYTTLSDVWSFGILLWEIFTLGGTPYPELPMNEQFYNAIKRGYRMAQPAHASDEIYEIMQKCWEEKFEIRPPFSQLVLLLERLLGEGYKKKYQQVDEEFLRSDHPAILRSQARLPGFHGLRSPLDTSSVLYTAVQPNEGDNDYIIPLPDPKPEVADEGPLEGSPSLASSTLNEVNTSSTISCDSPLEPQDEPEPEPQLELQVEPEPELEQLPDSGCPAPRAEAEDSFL
Procedure: as §1, with “PDGFRβ” for “EphB4”, “7.0” for “7.0,”, “EDTA, 0.1 mg/ml poly(Glu, Tyr) 4:1,” for “EDTA,”, “MnCl2,” for “MnCl2, 0.1 mg/ml poly(Glue, Tyr) 4:1,”, “incubation” for “incubatin”, “scintillation” for “scintillating”

inhibition at 2 µM (EphB4)	% Inhibition at ATP Km,app (IRAK4)	inhibition at 2 µM (PKA)	inhibition at 2 µM (PDGFR-beta)	SMILES
76 to 100%	0-25%	0 to 25%	26 to 50%	CC(C)(C)c1cc(C(=O)N2CCNS(=O)(=O)CC2)c(NC(=O)Nc2ccc(Oc3ccncc3)cc2)s1 [Example 1, 1-(5-tert-Butyl-3-(1,1-dioxo-1λ^6-[1,2,5]thiadiazepane-5-carbonyl)thiophen-2-yl)-3-(4-(pyridin-4-yloxy)phenyl)urea]
76 to 100%	0-25%	0 to 25%	26 to 50%	CC(C)(C)c1cc(C(=O)N2CCNC(=O)C2)c(NC(=O)Nc2ccc(Oc3ccncc3)cc2)s1 [Example 2, 1-(5-tert-Butyl-3-(3-oxo-piperazine-1-carbonyl)thiophen-2-yl)-3-(4-(pyridin-4-yloxy)phenyl)urea]
76 to 100%	0-25%	0 to 25%	26 to 50%	CC(C)(C)c1cc(C(=O)N2CCNC(=O)CC2)c(NC(=O)Nc2ccc(Oc3ccncc3)cc2)s1 [Example 4, 1-(5-tert-Butyl-3-(5-oxo-[1,4]diazepane-1-carbonyl)thiophen-2-yl)-3-(4-(pyridin-4-yloxy)phenyl)urea]
